Reference: patent publication US20220304974A1, “COMPOSITION COMPRISING GOSSYPETIN FOR PREVENTION OR TREATMENT OF NEURODEGENERATIVE DISEASE” (NOVMETAHEALTH CO.,LTD., priority 2019, published 2022)

Tests used:
Aβ amyloid aggregates = test: Immunohistochemistry staining of Aβ amyloid aggregates in brain slices; type: in vivo, mouse; conditions: hippocampus and frontal lobe tissues; mice fed with gossypetin; FIGS. 6A to 6F
Procedure: The brains were extracted from the groups of Alzheimer's disease-induced mice fed and not fed with gossypetin and were made into slices, and then the formation of Aβ amyloid aggregates was analyzed using immunohistochemistry staining.

chaperone protein CCT-4 = test: Chaperone protein preservation (amount of CCT-4); conditions: addition of gossypetin; FIG. 2E
[1] = system: U2OS cells expressing VRK2; test: Intracellular polyglutamine protein aggregation (dot blot, electrophoresis, microscopy), different concentrations of gossypetin; type: cell-based
Procedure: Polyglutamine protein aggregation is a cause of a degenerative brain disease. In order to investigate the polyglutamine protein aggregation inhibitory effect of gossypetin, U2OS cells expressing VRK2 were treated with different concentrations of gossypetin after the expression of a green fluorescent protein-conjugated polyglutamine protein, and a dot blot assay was performed. The protein aggregates formed in the cells were observed via electrophoresis, and the intracellular protein aggregate formation was observed using a microscope and quantitatively expressed.

VRK2 [2] = biological target: T1, VRK2 (Homo sapiens, UniProt Q86Y07); test: Binding between VRK2 and gossypetin-Sepharose 4B
From the text: First, gossypetin was chemically bound to Sepharose 4B (FIG. 2A), and then the binding between gossypetin and VRK2 was investigated.

microglia and astrocytes = test: Gliosis analysis with IBA-1 and GFAP antibodies in brain slices; type: in vivo, mouse; conditions: hippocampus and frontal lobe tissues; FIGS. 8 and 9
Procedure: The brains were extracted from the groups of Alzheimer's disease-induced mice fed and not fed with gossypetin and were made into slices, and then the distribution and proliferation of microglia and astrocytes were analyzed using an antibody against IBA-1, a specific protein of microglia, and an antibody against GFAP, a specific protein of astrocytes.

[3] = system: 5×FAD Alzheimer's disease-induced mice; test: Morris water maze test in Alzheimer's disease-induced mice; type: in vivo, mouse; conditions: 5×FAD mice; for memory of the platform site (water maze test): oral 10 mg/kg for 16 weeks from 8 weeks of age, platform removed on Day 6, FIG. 13
Procedure: (§1) […] Thereafter, Y-maze and Morris water maze tests were performed, which are widely used to check cognitive function. Specifically, short-term memory was assessed through the Y-maze test. The Morris water maze test was performed one week after the Y-maze test. Each mouse was trained to remember the location of the platform for 5 days, and then the time for the mouse to reach the platform was measured. On day 6 after the platform memory training, the platform was removed from the water tank, and the frequency of mouse staying at the site where the platform had been located was measured.
In the water maze test, the mice were trained to find a platform placed under the surface in a water tank for 5 days, and then on Day 6, the platform was removed, and it was monitored how well the mice remembered the site where the platform had been located.

cells = test: Cytotoxicity of each compound; type: cell-based; conditions: FIG. 11C
Procedure: (§2) In addition, cells were treated with each compound together with the induction of polyglutamine protein aggregation, and the reduction in amount of protein aggregation in the cells was observed using a fluorescence microscope. The total area of protein aggregation occurring in the cells, average size of protein aggregation, and inhibition rate of protein aggregation compared with the drug-untreated control group are shown in the table. The cytotoxicity of each compound was also examined.

[4] = system: 5×FAD Alzheimer's disease-induced mice; test: Y-maze test in Alzheimer's disease-induced mice; type: in vivo, mouse; conditions: for cognitive function (Y-maze test): 5×FAD mice, oral 10 mg/kg for 15 weeks from 8 weeks of age, FIG. 12
Procedure: as §1

VRK2 [5] = biological target: T1, VRK2; test: VRK2 activity inhibition (in vitro kinase assay, autophosphorylation); type: biochemical
From the text: The kinase VRK2 is known to prevent the elimination of polyglutamine aggregates by regulating TRiC chaperone protein in cells.
The cytotoxicity of each compound was also examined.

[6] = system: polyglutamine protein aggregation in the cells; test: Intracellular polyglutamine protein aggregation, comparison of compounds (fluorescence microscope); type: cell-based; conditions: compared with the drug-untreated control group; FIGS. 11A and 11B
Procedure: as §2

T1 sequence (Q86Y07 whole entry, species assumed): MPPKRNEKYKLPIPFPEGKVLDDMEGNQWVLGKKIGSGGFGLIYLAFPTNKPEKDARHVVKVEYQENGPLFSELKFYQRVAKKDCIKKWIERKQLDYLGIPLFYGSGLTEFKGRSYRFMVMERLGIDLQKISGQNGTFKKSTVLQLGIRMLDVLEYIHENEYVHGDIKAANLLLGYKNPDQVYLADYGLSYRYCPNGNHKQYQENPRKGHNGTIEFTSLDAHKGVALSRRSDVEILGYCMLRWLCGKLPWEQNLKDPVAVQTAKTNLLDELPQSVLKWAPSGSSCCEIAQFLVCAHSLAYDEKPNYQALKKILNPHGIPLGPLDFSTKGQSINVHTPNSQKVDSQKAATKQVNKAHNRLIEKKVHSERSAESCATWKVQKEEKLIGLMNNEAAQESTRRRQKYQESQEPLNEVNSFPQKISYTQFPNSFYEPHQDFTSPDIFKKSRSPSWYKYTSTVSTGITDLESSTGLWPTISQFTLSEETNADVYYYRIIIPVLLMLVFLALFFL

SMILES	Aβ amyloid aggregates (Aβ amyloid aggregates)	amount of the chaperone protein CCT-4 (chaperone protein CCT-4)	number of protein aggregate-bearing cells ([1]; FIGS. 1F to 1H)	polyglutamine protein aggregates ([1]; different concentrations of gossypetin, FIGS. 1A and 1B)	interaction between gossypetin and VRK2 (competition by added gossypetin) (VRK2 [2]; addition of gossypetin, FIG. 2C)	binding between gossypetin and VRK2 (VRK2 [2]; gossypetin-Sepharose 4B vs Sepharose 4B, FIG. 2B)	hyperactivity of microglia and astrocytes (gliosis) (microglia and astrocytes)	time to find the platform (escape latency) ([3]; oral 10 mg/kg for 14 weeks, 5 days training, FIG. 4)	frequency of staying at the site where the platform had been located ([3]; oral 10 mg/kg for 14 weeks, platform removed, day 6, FIG. 5)	memory of the platform site (water maze test) [3]	cytotoxicity (cells)	cognitive function (Y-maze test) [4]	short-term memory (Y-maze test) ([4]; 7-week-old 5×FAD mice, oral 10 mg/kg for 14 weeks, FIG. 3C)	VRK2 activity (VRK2 [5]; different concentrations of gossypetin, FIG. 2D)	autophosphorylation activity of VRK2 (VRK2 [5]; same concentration of 25 μM, FIG. 10)	inhibition of the intracellular protein aggregation [6] [%]
O=c1c(O)c(-c2ccc(O)c(O)c2)oc2c(O)c(O)cc(O)c12 [gossypetin, 2-(3,4-dihydroxyphenyl)-3,5,7,8-tetrahydroxy-4H-chromen-4-one]	significantly reduced	not decreased but increased	decreased	reduced depending on the gossypetin concentration	specific	VRK2 and gossypetin bound to each other	significantly reduced	found the platform in a shorter amount of time which was almost as fast as normal mice	increased frequency of staying at the site where the platform had been located	excellent memory comparable to normal mice	not showing toxicity in cells	restored the behavioral alteration to an almost normal level	improvement in short-term memory to a level similar to that of normal mice	inhibited depending on the concentration of gossypetin	most strongly inhibited	43
O=C(/C=C/c1ccc(O)c(O)c1)O[C@H](Cc1ccc(O)c(O)c1)C(=O)O [rosmarinic acid, reference compound]	–	–	–	–	–	–	–	–	–	not significantly restored	–	did not contribute to the alleviation of such cognitive function decline	–	–	–	–
